From patent US20250339569A1, “CARBONIC ANHYDRASE IX LIGANDS” (priority 2021, published 2025)
Values belong to the molecule of their own block, whether it stands above or below them. Starred links: 1 amine or outer side, 2 acyl side, 3 side chain; linkers in the order of their positions; H or OH if unused. Positions of bridges follow the written chain, without caps; N, C: chain ends. Non-standard residues stand in square brackets, D forms with d. Residues, ends and D or L forms follow the SMILES beside them. *: point of attachment. X47 = NC(=O)[C@H](CCCCNC(=O)CCCC[C@@H]1SC[C@@H]2NC(=O)N[C@@H]21)NC(=O)CCC(=O)NCCCOCCOCCOCCCN*; X69 = CC1(C)C(/C=C/C=C/C=C2\N(CCCCS(=O)(=O)O)c3ccccc3C2(C)C)=[N+](CCCCCC(=O)*)c2ccccc21; mXylylene = c1cc(C[*:1])cc(C[*:2])c1; X2 = O=C(CN1CCC(N[*:1])CC1)[*:2]

Key:
[1] = target: T1, CAIX-expressing human HT-29 colorectal cancer cells (Homo sapiens, UniProt Q16790); experiment: FACS binding assay (EC50 determination, labeled compound); settings: biotinylated or fluorophore-labeled compound, HT-29 cells, 4°C, 1 hour, read-out: pEC50 category (activity) (converted)
T1 construct: CAIX-expressing human HT-29 colorectal cancer cells; host or cells: HT-29 human colorectal cancer cells
Procedure: In order to determine binding of compounds according to the present invention to CAIX-expressing cells, a FACS binding assay was established.
CAIX-expressing human HT-29 colorectal cancer cells (DSMZ, RRID: CVCL_0320) were cultured in McCoys's 5A modified medium (Biochrom, #F1015) including 10% fetal calf serum (FCS), 2 mM L-glutamine, 100 U/ml penicillin and 100 μg/mL streptomycin. Cells were detached with Accutase (Biolegend, #423201) and washed in FACS buffer (PBS including 1% FCS). Cells were diluted in FACS buffer to a final concentration of 500.000 cells per ml. 200 μL of the cell suspension were transferred to a u-shaped non-binding 96-well plate (Greiner) and cells were washed in ice-cold FACS buffer.
When biotinylated compounds were used an additional incubation step with 1 μg/mL APC-Streptavidin (Miltenyi; #130-106-791) in 50 μL FACS buffer for 30 minutes on ice was performed.
Cells were washed twice with ice-cold FACS buffer and analyzed in an Attune NxT flow cytometer (Thermo Fisher). Median fluorescence intensities (MFI) of the APC/Cy5-channel were calculated by Attune NxT software. MFI values were plotted against peptide concentration and four parameter logistic (4PL) curve fitting and EC50/pEC50 or IC50/pIC50 calculations were performed using ActivityBase software.

[2] = system: SK-RC-52 (ccRCC) human cancer cell line xenograft; experiment: In vivo efficacy, uptake and tolerability of 177Lu-DPI-4452 (and 68Ga-DPI-4452) in SK-RC-52 xenograft mouse model; design: species or system NMRI nude mice; settings: SK-RC-52 model; for tolerability of treatment: 177Lu 33 or 100 MBq or 3×33 MBq, 68Ga 10 MBq, i.v.; for uptake in tumor compared to kidney and liver: SPECT/CT 4 h (177Lu) or PET/CT 1 h (68Ga)
Procedure: (§1) The human colorectal cancer cell line HT-29 was cultured in Modified McCoy's 5a Medium supplemented with 10% FBS+1% Pen/Strep, and the human clear cell renal cancer cell line SK-RC-52 was cultured in RPMI-1640 GlutaMax-I supplemented with 10% FBS+1% Pen/Strep.
(§2) 2×10^6 cells were suspended in 100 μL PBS and Matrigel (1:1) and subcutaneously implanted into the neck of anesthetized female immunodeficient NMRI nude mice. Tumor volume (0.52×(length×width^2)) and animal weight was monitored twice weekly until 42 days post treatment initiation. Animals were humanely euthanized by cervical dislocation at predefined study or humane endpoints.
(§3) Animals were randomized into equal groups based on tumor volume and body weight. Treatments were initiated at a mean group tumor volume of 140-180 mm^3 and administered intravenously in the tail vein in a 100 μL dosing volume.
(§4) For both models, treatment groups consisted of 10 mice per group and received either a A) Single administration (day 1) of vehicle, B) Single administration (day 1) of 100 MBq of ^177Lu-DPI-4452, C) Single administration (day 1) of 33 MBq of ^177Lu-DPI-4452 or D) Three administrations (day 1, 8, 15) of 33 MBq of ^177Lu-DPI-4452. To correlate the ^68Ga-DPI-4452 signal with the ^177Lu-DPI-4452 uptake in tumors, an additional satellite group E of 6 mice received a single administration (day 1) of 10 MBq of ^68Ga-DPI-4452 followed by a single administration (day 8) of 33 MBq of ^177Lu-DPI-4452.
(§5) In groups A-D, radioactivity uptake (as % of injected dose/gram tissue) was assessed in the tumor, kidney, and liver in 3 animals per treatment group by whole-body SPECT/CT imaging (nanoScan SPECT/CT, Mediso) at 4 h after each ^177Lu-DPI-4452 administration, using the following parameters: • Imaging bed: Two/three mice bed • CT acquisition • Helical scan, 480 projections • Pitch=1.0 • Voltage=50 kVp • Exposure=170 ms • SPECT acquisition: • Pinhole SPECT • Energy windows: Primor Peak 208 full width: 20%, Secondary 112.9, Tertiary: 56.1 keV • Acquisition time: Up to 30 min • Frame time: 30 s
(§6) In the satellite mice (group E), radioactivity uptake (as % of injected dose/gram tissue) was assessed in the tumor, kidney, and liver in all 6 animals by both whole-body SPECT imaging at 4 h after administration of 33 MBq ^177Lu-DPI-4452, and by whole-body PET/CT imaging (nanoScan PET/CT, Mediso) at 1 h after 10 MBq ^68Ga-DPI-4452 administration, using the following parameters: • Animals per bed: 3 • PET acquisition time: Up to 10 min • PET acquisition start: 1 hour after injection
(§7) One week later the 6 satellite mice were then assessed again for radioactivity uptake by whole-body SPECT/CT imaging at 4 h after the single ^177Lu-DPI-4452 administration using parameters as described above.
(§8) For both models blood sampling for hematology was performed on all animals in group A-D at study day −1, 7, 14 and at study end. Each mouse was restrained and 200 μl blood was obtained from the sublingual or jugular vein in EDTA-tubes and analyzed on the sampling day on a ProCyte Dx Hematology Analyzer with mouse settings. In addition, for the SK-RC-52 model at study day 14 and at study end (day 43), excess blood from the hematology analysis was spun and plasma was obtained (centrifugation at 2000 g for 10 mins at 4° C. in EDTA tubes). The plasma was analyzed for creatinine and urea concentrations using a KONELAB PRIME 30i instrument (Thermo Fisher Scientific).

[3] = system: HT-29 (CRC) human cancer cell line xenograft; experiment: In vivo efficacy, uptake and tolerability of 177Lu-DPI-4452 (and 68Ga-DPI-4452) in HT-29 xenograft mouse model; design: species or system NMRI nude mice; settings: HT-29 model; for tolerability of treatment: 177Lu 33 or 100 MBq or 3×33 MBq, 68Ga 10 MBq, i.v.; for uptake in tumor compared to kidney and liver: SPECT/CT 4 h (177Lu) or PET/CT 1 h (68Ga)
Procedure: as §1, §2, §3, §4, §5, §6, §7, §8

SMILES: CC(C)C[C@@H]1NC(=O)[C@H](Cc2cccc(NC(=O)CCCS(N)(=O)=O)c2)NC(=O)[C@H](CC(=O)O)NC(=O)[C@H]2CCCN2C(=O)[C@H](CCC(=O)O)NC(=O)[C@@H](NC(=O)[C@H](CCC(N)=O)NC(=O)CN2CCN(C(=O)CN3CCN(CC(=O)O)CCN(CC(=O)O)CCN(CC(=O)O)CC3)CC2)CSCc2cccc(c2)CSC[C@@H](C(N)=O)NC(=O)[C@H](CO)NC(=O)[C@H](Cc2c[nH]c3ccccc23)NC(=O)[C@H]([C@@H](C)O)NC1=O [^177Lu-DPI-4452, metal not drawn]
white blood cells, lymphocytes and neutrophils versus vehicle ([2]; 33/100 MBq): relative suppression
creatinine and urea levels ([2]; plasma, day 14 and study end): No differences in creatinine and urea levels between treatment groups
tolerability of treatment [2]: well tolerated
uptake in tumor compared to kidney and liver [2]: Preferential uptake in the tumor compared to kidney and liver
white blood cells, lymphocytes and neutrophils versus vehicle ([3]; 33/100 MBq): relative suppression
tolerability of treatment [3]: well tolerated
uptake in tumor compared to kidney and liver [3]: Preferential uptake in the tumor compared to kidney and liver

SMILES: CC(C)C[C@@H]1NC(=O)[C@H](Cc2c[nH]c3ccccc23)NC(=O)[C@H](CC(=O)O)NC(=O)[C@H]2CCCN2C(=O)[C@H](CCC(=O)O)NC(=O)[C@@H](NC(=O)[C@H](Cc2ccc(O)cc2)NC(=O)[C@@H](NC(=O)CN2CCC(NC(=O)CCCCC[N+]3=C(/C=C/C=C/C=C4\N(CCCCS(=O)(=O)O)c5ccccc5C4(C)C)C(C)(C)c4ccccc43)CC2)C(C)C)CSCc2cccc(c2)CSC[C@@H](C(N)=O)NC(=O)[C@H](CO)NC(=O)[C@H](Cc2c[nH]c3ccccc23)NC(=O)[C@H]([C@@H](C)O)NC1=O [3BP-4149, Cy5SO3-APAc-Val-Tyr-[Cys(3MeBn)-Glu-pro-Asp-Trp-Leu-Thr-Trp-Ser-Cys]-NH2] (X69-[X2]VYCE[dP]DWLTWSC-NH2; linker 4-13 via mXylylene)
EC50 [1]: < 10 nM

SMILES: CC[C@H](C)[C@@H]1NC(=O)[C@H](CCC(=O)O)NC(=O)[C@@H](NC(=O)[C@H](CCC(N)=O)NC(=O)[C@@H](N)CCSC)CSCc2cccc(c2)CSC[C@@H](C(=O)NCCCOCCOCCOCCCNC(=O)CCC(=O)N[C@@H](CCCCNC(=O)CCCC[C@@H]2SC[C@@H]3NC(=O)N[C@@H]32)C(N)=O)NC(=O)[C@H]([C@@H](C)O)NC(=O)[C@H](C(C)C)NC(=O)[C@H](Cc2c[nH]c3ccccc23)NC(=O)CNC(=O)[C@H](CC(=O)O)NC(=O)[C@H](C(C)C)NC(=O)[C@H](Cc2c[nH]c3ccccc23)NC1=O [3BP-2775] (H-MQCEIWVDGWVTC-X47; linker 3-13 via mXylylene)
EC50 [1]: 10 to 79.4 nM

SMILES: CC(C)C[C@@H]1NC(=O)[C@H](Cc2cccc(NC(=O)CCCS(N)(=O)=O)c2)NC(=O)[C@H](CC(=O)O)NC(=O)[C@H]2CCCN2C(=O)[C@H](CCC(=O)O)NC(=O)[C@@H](NC(=O)[C@H](CCC(N)=O)NC(=O)CN2CCN(C(=O)CN3CCN(CC(=O)O)CCN(CC(=O)O)CCN(CC(=O)O)CC3)CC2)CSCc2cccc(c2)CSC[C@@H](C(N)=O)NC(=O)[C@H](CO)NC(=O)[C@H](Cc2c[nH]c3ccccc23)NC(=O)[C@H]([C@@H](C)O)NC1=O [^68Ga-DPI-4452, metal not drawn]
tolerability of treatment [2]: well tolerated
uptake in tumor compared to kidney and liver [2]: Preferential tumor uptake
tolerability of treatment [3]: well tolerated
uptake in tumor compared to kidney and liver [3]: Preferential tumor uptake

More lines, now with the values ahead:

EC50 [1]: < 10 nM
SMILES: CSCC[C@H](N)C(=O)N[C@H](C(=O)N[C@@H](Cc1ccc(O)cc1)C(=O)N[C@H]1CSCc2cccc(c2)CSC[C@@H](C(=O)NCCCOCCOCCOCCCNC(=O)CCC(=O)N[C@@H](CCCCNC(=O)CCCC[C@@H]2SC[C@@H]3NC(=O)N[C@@H]32)C(N)=O)NC(=O)[C@H](CCC(N)=O)NC(=O)[C@H](Cc2c[nH]c3ccccc23)NC(=O)[C@H]([C@@H](C)O)NC(=O)[C@H](CC(C)C)NC(=O)[C@H](Cc2c[nH]c3ccccc23)NC(=O)[C@H](CC(=O)O)NC(=O)CNC(=O)[C@H](CCC(=O)O)NC1=O)C(C)C [3BP-2776] (H-MVYCEGDWLTWQC-X47; linker 4-13 via mXylylene)

EC50 [1]: < 10 nM
SMILES: CC[C@H](C)[C@@H]1NC(=O)[C@H](CCC(=O)O)NC(=O)[C@@H](NC(=O)[C@H](CCCNC(=N)N)NC(=O)[C@@H](N)CCSC)CSCc2cccc(c2)CSC[C@@H](C(=O)NCCCOCCOCCOCCCNC(=O)CCC(=O)N[C@@H](CCCCNC(=O)CCCC[C@@H]2SC[C@@H]3NC(=O)N[C@@H]32)C(N)=O)NC(=O)[C@H](CC(=O)O)NC(=O)[C@H](C(C)C)NC(=O)[C@H](Cc2c[nH]c3ccccc23)NC(=O)CNC(=O)[C@H](CC(=O)O)NC(=O)[C@H](C(C)C)NC(=O)[C@H](Cc2c[nH]c3ccccc23)NC1=O [3BP-2778] (H-MRCEIWVDGWVDC-X47; linker 3-13 via mXylylene)

EC50 [1]: < 10 nM
SMILES: CSCC[C@H](N)C(=O)N[C@H](C(=O)N[C@@H](Cc1ccc(O)cc1)C(=O)N[C@H]1CSCc2cccc(c2)CSC[C@@H](C(=O)NCCCOCCOCCOCCCNC(=O)CCC(=O)N[C@@H](CCCCNC(=O)CCCC[C@@H]2SC[C@@H]3NC(=O)N[C@@H]32)C(N)=O)NC(=O)[C@H](CO)NC(=O)[C@H](Cc2c[nH]c3ccccc23)NC(=O)CNC(=O)[C@H](CC(C)C)NC(=O)[C@H](Cc2c[nH]c3ccccc23)NC(=O)[C@H](CO)NC(=O)CNC(=O)[C@H](CCC(=O)O)NC1=O)C(C)C [3BP-2777] (H-MVYCEGSWLGWSC-X47; linker 4-13 via mXylylene)
